# Assay results: patent US20160113960A1, “TOPICAL PREPARATIONS COMPRISING HYALURONIC ACID, VERBASCOSIDE AND GLYCEROPHOSPHOINOSITOL” (ALTERGON S.A., priority 2013, published 2016)
# Assays:
# [1] = titre of components in the muco-adhesive solution on storage at room temperature; type: physicochemical
# [2] = spectrophotometric test with 2,2-diphenyl-1-picrylhydrazyl (DPPH), radical scavenging activity; type: biochemical; conditions: for radical scavenging activity (in words): DPPH test, summary of Tables 1 and 2
# Procedure: Evidence of the radical scavenging activity of the main ingredients of the formulations prepared, VB, HANa, GPI, were obtained with in vitro tests.
# The anti-radical activity of VB alone and in combination with HANa and GPI was analyzed by spectrophotometric test with 2,2-diphenyl-1-picrylhydrazyl (DPPH). The samples were prepared respecting the proportions provided in the formulation.
# [3] = storage stability of verbascoside with and without water; type: physicochemical
# Text: Therefore, in a more preferred embodiment, the ternary association of the invention is formulated in dry form or with liquid or semi-solid anhydrous ingredients. If the final formulation requires one or more aqueous ingredients, verbascoside is preferably packaged separately in conditions of absence of water (or in the dry state or with semi-solid/liquid anhydrous ingredients) and stored in that form; a preferred semi-solid form is represented by glycerogel, or gelled semi-solid and non hydrated forms with a glycerin base; upon use, verbascoside is combined with the aqueous components, obtaining the final aqueous formulation, ready for administration. The separate packaging of the above ingredients is achievable by generally known means, e.g. double chamber bags, twin-bag double chamber dispensers, etc.
# [4] = tested on: inflammatory chemokines such as GM-GCSF, IL-8, IP-10 and MCP-1; conditions: human keratinocytes stimulated with TNFα or IFN-γ; cited from earlier work
# [5] = target: T1, iNOS (inducible nitric oxide synthase) (Homo sapiens, UniProt P35228); conditions: THP-1 cells stimulated with LPS and IFN-γ; cited from earlier work
# T1 construct: human THP-1 leukemia cells stimulated with pro-inflammatory stimuli (e.g. LPS and IFN-γ) in which the activity of iNOS is overexpressed; endogenous in cells; host or cells: human THP-1 leukemia cells stimulated with LPS and IFN-γ
# periodontitis model = conditions: rats, cited from earlier work
# [6] = muco-adhesive solution of Example 6
# [7] = muco-adhesive solution of Example 7, solution pH 4.4, viscosity 145 mPas s
# [8] = muco-adhesive solution of Example 8, solution pH 4.4, viscosity 60 mPas s
# [9] = muco-adhesive solution of Example 9, iota carrageenan solution, pH 4.3
"% titre at 30 days at room temperature [1, 6]","Initial % titre [1, 6]","% titre at 10 days at room temperature [1, 7]","Initial % titre [1, 7]","% titre at 10 days at room temperature [1, 8]","Initial % titre [1, 8]","% titre at 30 days at room temperature [1, 9]","Initial % titre [1, 9]",Molecule,radical scavenging activity (in words) [2],further results
98.2%,99.5%,102.88%,99.63%,102.24%,98.17%,100.8%,100.6%,"O=P(O)(OC[C@H](O)CO)OC1[C@H](O)[C@H](O)C(O)[C@H](O)[C@H]1O (stereo partly drawn) [GPI, Inositol glycerophosphate]",essentially showed no activity,Radical scavenging activity (%) ([2]; concentration 78 mg/L): 1%
92.5%,99.6%,98.71%,101.68%,98.55%,102.2%,92.9%,101.7%,"C[C@@H]1O[C@@H](O[C@@H]2[C@@H](O)[C@H](OCCc3ccc(O)c(O)c3)O[C@H](CO)[C@H]2OC(=O)/C=C/c2ccc(O)c(O)c2)[C@H](O)[C@H](O)[C@H]1O [VB, Verbascoside]",clear,"time for which a high titre is maintained ([1]; after extemporaneous incorporation with the aqueous component, room temperature): at least 30 days; Radical scavenging activity (%) ([2]; VB concentration 3.3 μM (2.1 mg/L)): 15%; Radical scavenging activity (%) ([2]; VB concentration 6.6 μM (4.1 mg/L)): 24%; Radical scavenging activity (%) ([2]; VB concentration 13.2 μM (8.3 mg/L)): 42%; Radical scavenging activity (%) ([2]; VB concentration 26.5 μM (16.6 mg/L)): 76%; Radical scavenging activity (%) ([2]; VB concentration 53 μM (33.1 mg/L)): 95%; Radical scavenging activity (%) ([2]; concentration 15.6 mg/L): 74%; stability ([3]; in an aqueous medium): particularly labile; stability upon storage ([3]; stored in the absence of water): particularly stable; inflammatory chemokines such as GM-GCSF, IL-8, IP-10 and MCP-1 [4]: reduces in a dose-dependent manner; expression and activity of iNOS and superoxide radicals [5]: significant decrease; parameters of inflammation (periodontitis model; oral administration 2 mg/kg/day for 8 days): significantly reduces; anti-inflammatory effect (periodontitis model; periodontitis model): marked anti-inflammatory effect"
100.7%,101.3%,96.26%,99.32%,96.26%,98.48%,114.9%,114.6%,Hyaluronic acid sodium salt [HANa],essentially showed no activity,Radical scavenging activity (%) ([2]; concentration 62.4 mg/L): 1%
